The values below come from US20150150879A2, “Compositions for Treatment of Cystic Fibrosis and Other Chronic Diseases” (Vertex Pharmaceuticals Incorporated, priority 2010, published 2015).

Each structure is given as a SMILES string.

In this experiment the target is T1, ΔF508-CFTR (Homo sapiens, UniProt P13569, DEL508-508).
T1 construct: expressed in transfected cells
The experiment can be described thus: Membrane potential optical (FRET/VIPR) assay, identification of potentiator compounds, NIH3T3 cells stably expressing ΔF508-CFTR. Format: cell-based. As to conditions: Table II.A-4, assay not given; for EC50: modulators of ATP binding cassette transporters. From the text:
I) Membrane Potential Optical Methods for Assaying ΔF508-CFTR Modulation Properties of Compounds
The optical membrane potential assay utilized voltage-sensitive FRET sensors described by Gonzalez and Tsien (See, Gonzalez, J. E. and R. Y. Tsien (1995) “Voltage sensing by fluorescence resonance energy transfer in single cells” Biophys J 69(4): 1272-80, and Gonzalez, J. E. and R. Y. Tsien (1997) “Improved indicators of cell membrane potential that use fluorescence resonance energy transfer” Chem Biol 4(4): 269-77) in combination with instrumentation for measuring fluorescence changes such as the Voltage/Ion Probe Reader (VIPR) (See, Gonzalez, J. E., K. Oades, et al. (1999) “Cell-based assays and instrumentation for screening ion-channel targets” Drug Discov Today 4(9): 431-439).
These voltage sensitive assays are based on the change in fluorescence resonant energy transfer (FRET) between the membrane-soluble, voltage-sensitive dye, DiSBAC2(3), and a fluorescent phospholipid, CC2-DMPE, which is attached to the outer leaflet of the plasma membrane and acts as a FRET donor. Changes in membrane potential (Vm) cause the negatively charged DiSBAC2(3) to redistribute across the plasma membrane and the amount of energy transfer from CC2-DMPE changes accordingly. The changes in fluorescence emission were monitored using VIPR™ II, which is an integrated liquid handler and fluorescent detector designed to conduct cell-based screens in 96- or 384-well microtiter plates.
Identification of Potentiator Compounds
To identify potentiators of ΔF508-CFTR, a double-addition HTS assay format was developed. During the first addition, a Cl^−-free medium with or without test compound was added to each well. After 22 sec, a second addition of Cl^−-free medium containing 2-10 μM forskolin was added to activate ΔF508-CFTR. The extracellular Cl^− concentration following both additions was 28 mM, which promoted Cl^− efflux in response to ΔF508-CFTR activation and the resulting membrane depolarization was optically monitored using the FRET-based voltage-sensor dyes. Solutions […]

T1 sequence (P13569 with tags, fused parts or gaps DEL508-508): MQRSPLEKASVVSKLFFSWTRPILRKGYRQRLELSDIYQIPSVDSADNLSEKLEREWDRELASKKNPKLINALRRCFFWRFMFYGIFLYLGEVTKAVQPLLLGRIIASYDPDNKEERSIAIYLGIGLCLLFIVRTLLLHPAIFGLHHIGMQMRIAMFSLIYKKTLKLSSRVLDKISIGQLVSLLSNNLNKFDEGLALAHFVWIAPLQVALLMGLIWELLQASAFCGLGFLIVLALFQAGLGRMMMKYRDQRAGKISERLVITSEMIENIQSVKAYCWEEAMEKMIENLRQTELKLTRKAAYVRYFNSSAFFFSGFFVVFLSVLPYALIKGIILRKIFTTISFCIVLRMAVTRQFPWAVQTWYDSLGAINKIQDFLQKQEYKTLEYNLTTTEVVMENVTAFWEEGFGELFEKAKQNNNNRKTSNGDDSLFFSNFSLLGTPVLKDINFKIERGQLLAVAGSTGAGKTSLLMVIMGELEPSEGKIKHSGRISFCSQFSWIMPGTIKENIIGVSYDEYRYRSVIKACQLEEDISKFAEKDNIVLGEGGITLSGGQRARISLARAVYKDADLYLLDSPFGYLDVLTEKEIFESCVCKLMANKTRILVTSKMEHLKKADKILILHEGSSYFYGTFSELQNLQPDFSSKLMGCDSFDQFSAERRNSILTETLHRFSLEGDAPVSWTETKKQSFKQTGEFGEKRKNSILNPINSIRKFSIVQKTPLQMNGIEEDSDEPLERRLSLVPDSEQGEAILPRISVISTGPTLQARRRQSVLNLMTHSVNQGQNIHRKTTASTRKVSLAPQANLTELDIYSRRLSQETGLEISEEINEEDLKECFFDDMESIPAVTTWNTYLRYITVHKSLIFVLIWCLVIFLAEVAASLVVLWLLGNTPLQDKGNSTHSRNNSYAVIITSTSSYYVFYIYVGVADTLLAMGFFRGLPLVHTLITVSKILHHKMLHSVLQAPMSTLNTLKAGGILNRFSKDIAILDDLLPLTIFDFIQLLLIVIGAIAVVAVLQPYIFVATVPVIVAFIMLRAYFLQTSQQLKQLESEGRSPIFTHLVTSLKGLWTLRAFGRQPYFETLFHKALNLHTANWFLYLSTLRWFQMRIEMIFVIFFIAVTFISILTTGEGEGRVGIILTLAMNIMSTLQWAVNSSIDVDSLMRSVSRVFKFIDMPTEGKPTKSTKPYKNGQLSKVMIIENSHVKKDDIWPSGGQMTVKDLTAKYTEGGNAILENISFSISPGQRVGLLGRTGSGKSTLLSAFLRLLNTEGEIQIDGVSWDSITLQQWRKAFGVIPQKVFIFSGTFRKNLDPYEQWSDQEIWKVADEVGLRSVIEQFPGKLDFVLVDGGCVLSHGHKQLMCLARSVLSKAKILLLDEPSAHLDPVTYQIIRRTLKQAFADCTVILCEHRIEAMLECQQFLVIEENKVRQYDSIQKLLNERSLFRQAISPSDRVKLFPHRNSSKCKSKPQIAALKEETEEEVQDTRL

For the molecule `CC(C)(C)c1cc(C(C)(C)C)c(NC(=O)c2c[nH]c3cccc(O)c3c2=O)cc1O` [Compound 464, 5-hydroxy-N-(5-hydroxy-2,4-ditert-butyl-phenyl)-4-oxo-1H-quinoline-3-carboxamide], the EC50 is less than 10 µM. In addition, the “% Activity (relative efficacy)” value (relative efficacy) is reported as “++ (“++” means between 25% to 100%)”.

On to `Cc1cc2nc(NC(=O)c3c[nH]c4ccccc4c3=O)[nH]c2cc1C` [compound 422, N-(5,6-dimethyl-3H-benzoimidazol-2-yl)-4-oxo-1H-quinoline-3-carboxamide], for which the half-maximal effective concentration (EC50) is less than 10 µM.
